Measured values: patent US8318811B2, “Method for treating an inflammatory bowel disease using 2-amino-2-[4-(3-benzyloxyphenylthio)-2-chlorophenyl]ethyl-1,3-propanediol or a salt thereof” (Kyorin Pharmaceutical Co., Ltd., priority 2006, dated 2012)
Where a name gives a salt, the structure may show the parent alone.

Key:
[1] = tested on: Dextran Sodium Sulfate-Induced Colitis in Mice; test: Dextran sodium sulfate-induced colitis in mice; assay type: in vivo, BALB/C male mice; conditions: for Length of large intestine / myeloperoxidase activity in large intestine: DSS colitis, average ± standard error
Procedure: Colitis was induced in BALB/C male mice by allowing animals To drink a5% aqueous solution of dextran sodium sulfate (DSS) (average molecular weight=5000) for 7 days [Kitajima, S. et. al., Exp Anim, Vol. 49, No. 1: 9-15 (2000)]. KRP-203 dissolved in distilled water (at 0.01, 0.03 and 0.1 mg/kg) was orally administered once a day for 8 days, starting the day before the administration of DSS solution. One group was administered distilled water as a placebo.
8 days after the start of the DSS period, mice were anesthetized With diethylether and sacrificed by cervical dislocation. The large intestine (the segment from colon to anus) was removed from each animal. Because it is known that the ingestion of DSS solution causes colitis in mice that causes a decrease in the length of large intestine [Okayasu, I. et. al., Gastroenterology, Vol. 98: 694-702 (1990)], the length of the large intestine from the colon to anus was measured with a caliper. The large intestine was then cut open longitudinally to expose the lumen and the content was washed off with physiological saline. The specimens were assayed and compared for the activity of myeloperoxidase, a marker of inflammation in colitis [Grisham, M B. et. al., Methods Enzymol, Vol. 186: 729-742 (1990)]. […]
Tacrolimus was suspended in a 0.5% aqueous solution of carboxymethylcellulose sodium (CMC-Na) (at 3 mg/kg) and was administered once a day for 8 days, starting the day before the start of the DSS period. One group was administered 0.5% aqueous CMC-Na solution as a placebo. The increase in the myeloperoxidase activity in large intestine was suppressed by 37% in the 3 mg/kg group as compared to the placebo group.

IL-10 knockout mice = test: Effect on colitis in IL-10 knockout mice (histological score of large intestine); assay type: in vivo, B6.129P2-IL10<tm1Cgn>/J (IL-10 knockout) mice; conditions: 0.1 mg/kg orally once a day for 4 weeks; sum of proximal, middle and distal large intestine scores; average ± standard error
Procedure: B6.129P2-IL10^<tm1Cgn>/J (IL-10 knockout) mice (male, 5-6 week old) were obtained for the test. KRP-203 dissolved in distilled water was orally administered at a dose of 0.1 mg/kg once a day for 4 weeks, starting 8 weeks after the animals were obtained. One group was administered distilled water alone as a placebo. Following the administration period, the animals were dissected to remove large intestine, which was then fixed in formalin. Subsequently, tissue slices were prepared from the formalin-fixed large intestine and were stained with hematoxylin and eosin. The proximal, middle, and distal segments of the large intestine were then histologically scored according to the standard procedure (Berg D J, et al., Gastroenterology, 123: 1527-1542 (2002)). The scores for the three segments were added together to determine the histological scores for individual animals. The results are given in average ±standard error.

[2] = 0.01 mg/kg orally once a day for 8 days
[3] = 0.03 mg/kg orally once a day for 8 days
[4] = 0.1 mg/kg orally once a day for 8 days

Structure (SMILES)	suppression of the increase in the myeloperoxidase activity in large intestine as compared to the placebo group ([1]; 0.01 mg/kg group) [%]	Length of large intestine [1, 2] [mm]	myeloperoxidase activity in large intestine [1, 2] [U/g protein]	suppression of the increase in the myeloperoxidase activity in large intestine as compared to the placebo group ([1]; 0.03 mg/kg group) [%]	Length of large intestine [1, 3] [mm]	myeloperoxidase activity in large intestine [1, 3] [U/g protein]	suppression of the increase in the myeloperoxidase activity in large intestine as compared to the placebo group ([1]; 0.1 mg/kg group) [%]	Length of large intestine [1, 4] [mm]	myeloperoxidase activity in large intestine [1, 4] [U/g protein]	Histological Score (IL-10 knockout mice)	suppression of the increase in the myeloperoxidase activity in large intestine as compared to the placebo group ([1]; 3 mg/kg group, suspended in 0.5% CMC-Na, once a day for 8 days) [%]
NC(CO)(CO)CCc1ccc(Sc2cccc(OCc3ccccc3)c2)cc1Cl [KRP-203, 2-amino-2-[4-(3-benzyloxyphenylthio)-2-chlorophenyl]ethyl-1,3-propanediol hydrochloride]	51	67.4 ± 1.4	55.8 ± 16.2	69	72.7 ± 1.5	36.8 ± 5.9	62	71.4 ± 1.4	44.4 ± 6.4	0.3 ± 0.2	–
C=CC[C@@H]1/C=C(\C)C[C@H](C)C[C@H](OC)[C@H]2O[C@@](O)(C(=O)C(=O)N3CCCC[C@H]3C(=O)O[C@H](/C(C)=C/[C@@H]3CC[C@@H](O)[C@H](OC)C3)[C@H](C)[C@@H](O)CC1=O)[C@H](C)C[C@@H]2OC [Tacrolimus, tacrolimus, reference compound]	–	–	–	–	–	–	–	–	–	–	37
